Values joined by “and” are separate entries in the source; they are usually repeats but may differ in a detail not shown here. Equal values may be shown once.
What was measured:
[1] = target: T1, CDK5/p35 (Homo sapiens, UniProt Q00535); assay: Kinase selectivity profile assay; format: biochemical; conditions: 500 nM; relative to DMSO; read-out: Residual enzymatic activity
T1 construct: purchased Reaction Biology Corporation
Experimental: (§1) The activity of MT-SYK-03 against cSrc kinase and selectivity profile towards other 341 kinases was determined at Reaction Biology Corporation (Malvern, PA, USA) using the standard kinase assay protocol. […]; unbound phosphate was removed by extensive washing of filters in phosphoric acid. Kinase activity data was expressed as the percent remaining kinase activity in test samples compared to vehicle (dimethyl sulfoxide) reactions based on the radioactivity of reaction products (see Table S2). Experiment was replicated twice.

[2] = target: T2, ALK1/ACVRL1 (Homo sapiens, UniProt P37023); assay: Kinase selectivity profile assay; format: biochemical; conditions: 500 nM; relative to DMSO; read-out: Residual enzymatic activity
T2 construct: purchased Reaction Biology Corporation
T2 sequence (P37023 22-503): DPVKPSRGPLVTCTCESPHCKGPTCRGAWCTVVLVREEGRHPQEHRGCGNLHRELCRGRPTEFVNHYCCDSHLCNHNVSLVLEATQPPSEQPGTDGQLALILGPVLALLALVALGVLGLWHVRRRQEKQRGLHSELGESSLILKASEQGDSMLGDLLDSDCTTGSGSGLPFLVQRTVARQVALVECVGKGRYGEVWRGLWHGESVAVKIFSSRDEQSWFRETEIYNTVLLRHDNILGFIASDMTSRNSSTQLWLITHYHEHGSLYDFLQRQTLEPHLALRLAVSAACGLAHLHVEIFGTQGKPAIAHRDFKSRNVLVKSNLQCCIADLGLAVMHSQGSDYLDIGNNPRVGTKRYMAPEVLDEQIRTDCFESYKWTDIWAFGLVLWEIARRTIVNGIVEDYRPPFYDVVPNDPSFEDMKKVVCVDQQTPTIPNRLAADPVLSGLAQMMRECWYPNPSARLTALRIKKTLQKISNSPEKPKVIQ
Experimental: as §1

[3] = target: T3, TIE2/TEK (Homo sapiens, UniProt Q02763); assay: Kinase selectivity profile assay; format: biochemical; conditions: 500 nM; relative to DMSO
T3 construct: purchased Reaction Biology Corporation
Experimental: as §1

[4] = target: T4, JAK1 (Homo sapiens, UniProt P23458); assay: Kinase selectivity profile assay; format: biochemical; conditions: 500 nM; relative to DMSO; read-out: Residual enzymatic activity
T4 construct: purchased Reaction Biology Corporation
Experimental: as §1

[5] = target: T5, ULK3 (Homo sapiens, UniProt Q6PHR2); assay: Kinase selectivity profile assay; format: biochemical; conditions: 500 nM; relative to DMSO; read-out: Residual enzymatic activity
T5 construct: purchased Reaction Biology Corporation
T5 sequence (Q6PHR2 whole entry): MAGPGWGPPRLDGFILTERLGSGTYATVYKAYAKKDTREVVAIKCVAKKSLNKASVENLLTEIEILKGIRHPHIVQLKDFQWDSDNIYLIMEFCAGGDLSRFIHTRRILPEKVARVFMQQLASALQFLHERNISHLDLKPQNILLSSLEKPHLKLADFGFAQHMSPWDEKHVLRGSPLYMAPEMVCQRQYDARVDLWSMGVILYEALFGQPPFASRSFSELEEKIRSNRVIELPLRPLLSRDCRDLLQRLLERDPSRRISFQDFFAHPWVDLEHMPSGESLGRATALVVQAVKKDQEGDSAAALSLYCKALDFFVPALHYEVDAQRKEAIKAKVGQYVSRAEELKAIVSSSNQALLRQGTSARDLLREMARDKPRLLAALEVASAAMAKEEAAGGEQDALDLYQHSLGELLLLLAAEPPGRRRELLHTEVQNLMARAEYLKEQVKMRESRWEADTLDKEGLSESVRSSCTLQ
Experimental: as §1

[6] = target: T6, STK22D/TSSK1 (Homo sapiens, UniProt Q9BXA7); assay: Kinase selectivity profile assay; format: biochemical
T6 construct: purchased Reaction Biology Corporation (Malvern, PA, USA)
T6 sequence (Q9BXA7 1-367): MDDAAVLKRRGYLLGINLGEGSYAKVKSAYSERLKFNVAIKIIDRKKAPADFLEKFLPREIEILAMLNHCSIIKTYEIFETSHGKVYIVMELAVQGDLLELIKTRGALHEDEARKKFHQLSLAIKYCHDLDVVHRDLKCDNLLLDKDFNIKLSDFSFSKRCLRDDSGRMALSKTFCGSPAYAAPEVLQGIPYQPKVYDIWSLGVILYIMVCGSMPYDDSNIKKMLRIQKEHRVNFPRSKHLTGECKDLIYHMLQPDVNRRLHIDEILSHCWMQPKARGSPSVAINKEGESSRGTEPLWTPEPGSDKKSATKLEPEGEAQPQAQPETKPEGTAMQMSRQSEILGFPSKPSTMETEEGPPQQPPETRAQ
Experimental: as §1

[7] = target: T7, MARK4 (Homo sapiens, UniProt Q96L34); assay: Kinase selectivity profile assay; format: biochemical; conditions: 500 nM; relative to DMSO; read-out: Residual enzymatic activity
T7 construct: purchased Reaction Biology Corporation
Experimental: as §1

[8] = target: T8, BRK (Homo sapiens, UniProt Q13882); assay: Kinase selectivity profile assay; format: biochemical; conditions: 500 nM, relative to DMSO
T8 construct: purchased Reaction Biology Corporation
T8 sequence (Q13882 whole entry): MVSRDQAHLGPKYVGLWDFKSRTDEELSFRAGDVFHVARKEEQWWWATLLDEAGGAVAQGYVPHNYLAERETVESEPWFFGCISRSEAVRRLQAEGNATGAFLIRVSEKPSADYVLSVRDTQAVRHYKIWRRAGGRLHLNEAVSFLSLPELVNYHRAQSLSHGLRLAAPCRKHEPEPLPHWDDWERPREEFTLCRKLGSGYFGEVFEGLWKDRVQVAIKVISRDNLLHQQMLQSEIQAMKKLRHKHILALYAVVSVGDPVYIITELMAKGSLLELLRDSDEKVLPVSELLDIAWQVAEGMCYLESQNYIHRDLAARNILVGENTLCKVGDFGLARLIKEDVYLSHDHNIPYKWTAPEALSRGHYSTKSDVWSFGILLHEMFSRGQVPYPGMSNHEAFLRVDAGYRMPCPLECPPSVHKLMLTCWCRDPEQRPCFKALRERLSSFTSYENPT
Experimental: as §1

[9] = target: T9, IR (Homo sapiens, UniProt P06213); assay: Kinase selectivity profile assay; format: biochemical; conditions: 500 nM; relative to DMSO; read-out: Residual enzymatic activity
T9 construct: purchased Reaction Biology Corporation
Experimental: as §1

[10] = target: T10, Aurora B (Homo sapiens, UniProt Q96GD4); assay: Kinase selectivity profile assay; format: biochemical; conditions: 500 nM; relative to DMSO; read-out: Residual enzymatic activity
T10 construct: purchased Reaction Biology Corporation
T10 sequence (Q96GD4 whole entry): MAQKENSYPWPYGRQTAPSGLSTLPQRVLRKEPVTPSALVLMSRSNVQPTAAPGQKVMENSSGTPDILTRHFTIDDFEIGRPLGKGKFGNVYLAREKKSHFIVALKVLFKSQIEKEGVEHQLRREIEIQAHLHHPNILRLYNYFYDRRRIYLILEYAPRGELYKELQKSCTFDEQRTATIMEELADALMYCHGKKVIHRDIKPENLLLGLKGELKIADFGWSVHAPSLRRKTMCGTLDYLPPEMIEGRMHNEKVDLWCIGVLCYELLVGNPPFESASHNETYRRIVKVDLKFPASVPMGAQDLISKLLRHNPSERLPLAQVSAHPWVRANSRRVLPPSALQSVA
Experimental: as §1

[11] = target: T11, EPHA7 (Homo sapiens, UniProt Q15375); assay: Kinase selectivity profile assay; format: biochemical; conditions: 500 nM, relative to DMSO
T11 construct: purchased Reaction Biology Corporation
T11 sequence (Q15375 28-998): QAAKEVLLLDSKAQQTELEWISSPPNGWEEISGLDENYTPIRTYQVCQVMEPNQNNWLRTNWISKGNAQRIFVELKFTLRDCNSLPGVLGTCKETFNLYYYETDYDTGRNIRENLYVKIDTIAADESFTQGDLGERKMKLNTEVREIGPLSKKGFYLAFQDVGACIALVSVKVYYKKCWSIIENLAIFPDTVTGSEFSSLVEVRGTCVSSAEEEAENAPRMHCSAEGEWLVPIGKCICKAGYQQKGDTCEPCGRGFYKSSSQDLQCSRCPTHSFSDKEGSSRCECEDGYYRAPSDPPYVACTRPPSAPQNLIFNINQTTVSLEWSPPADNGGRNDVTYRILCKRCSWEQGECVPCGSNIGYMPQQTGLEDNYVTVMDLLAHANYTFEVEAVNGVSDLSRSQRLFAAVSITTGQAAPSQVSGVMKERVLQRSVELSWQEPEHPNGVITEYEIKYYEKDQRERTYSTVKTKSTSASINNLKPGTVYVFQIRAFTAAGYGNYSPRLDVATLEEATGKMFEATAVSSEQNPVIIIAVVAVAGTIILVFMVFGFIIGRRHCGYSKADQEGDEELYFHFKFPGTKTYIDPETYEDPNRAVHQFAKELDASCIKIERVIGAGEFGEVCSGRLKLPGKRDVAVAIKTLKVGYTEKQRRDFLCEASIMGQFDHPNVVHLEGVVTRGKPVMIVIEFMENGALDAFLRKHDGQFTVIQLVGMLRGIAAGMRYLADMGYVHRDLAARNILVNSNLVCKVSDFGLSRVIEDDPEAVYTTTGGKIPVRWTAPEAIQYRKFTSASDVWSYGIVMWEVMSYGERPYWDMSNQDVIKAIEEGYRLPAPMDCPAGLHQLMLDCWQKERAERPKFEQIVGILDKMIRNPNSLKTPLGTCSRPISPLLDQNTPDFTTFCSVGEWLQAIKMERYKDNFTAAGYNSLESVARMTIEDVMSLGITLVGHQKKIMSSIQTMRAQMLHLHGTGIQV
Experimental: as §1

[12] = target: T12, AKT1 (Homo sapiens, UniProt P31749); assay: Kinase selectivity profile assay; format: biochemical; conditions: 500 nM; relative to DMSO; read-out: Residual enzymatic activity
T12 construct: purchased Reaction Biology Corporation
T12 sequence (P31749 whole entry): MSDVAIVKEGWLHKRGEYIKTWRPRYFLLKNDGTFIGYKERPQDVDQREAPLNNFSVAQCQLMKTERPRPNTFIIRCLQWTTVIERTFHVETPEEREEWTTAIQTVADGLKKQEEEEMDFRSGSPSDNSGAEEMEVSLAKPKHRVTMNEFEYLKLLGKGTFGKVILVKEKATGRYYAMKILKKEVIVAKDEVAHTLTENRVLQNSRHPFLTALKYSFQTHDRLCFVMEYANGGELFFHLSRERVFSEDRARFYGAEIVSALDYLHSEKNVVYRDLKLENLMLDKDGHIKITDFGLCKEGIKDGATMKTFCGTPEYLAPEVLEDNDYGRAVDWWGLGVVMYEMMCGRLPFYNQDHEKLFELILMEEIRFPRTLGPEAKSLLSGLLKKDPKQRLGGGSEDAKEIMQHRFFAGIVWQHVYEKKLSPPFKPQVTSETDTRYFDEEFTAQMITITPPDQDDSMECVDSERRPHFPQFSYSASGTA
Experimental: as §1

[13] = target: T13, GCK/MAP4K2 (Homo sapiens, UniProt Q12851); assay: Kinase selectivity profile assay; format: biochemical; conditions: 500 nM; relative to DMSO; read-out: Residual enzymatic activity
T13 construct: purchased Reaction Biology Corporation
Experimental: as §1

[14] = target: T14, DYRK1B (Homo sapiens, UniProt Q9Y463); assay: Kinase selectivity profile assay; format: biochemical; conditions: 500 nM; relative to DMSO; read-out: Residual enzymatic activity
T14 construct: purchased Reaction Biology Corporation
T14 sequence (Q9Y463 whole entry): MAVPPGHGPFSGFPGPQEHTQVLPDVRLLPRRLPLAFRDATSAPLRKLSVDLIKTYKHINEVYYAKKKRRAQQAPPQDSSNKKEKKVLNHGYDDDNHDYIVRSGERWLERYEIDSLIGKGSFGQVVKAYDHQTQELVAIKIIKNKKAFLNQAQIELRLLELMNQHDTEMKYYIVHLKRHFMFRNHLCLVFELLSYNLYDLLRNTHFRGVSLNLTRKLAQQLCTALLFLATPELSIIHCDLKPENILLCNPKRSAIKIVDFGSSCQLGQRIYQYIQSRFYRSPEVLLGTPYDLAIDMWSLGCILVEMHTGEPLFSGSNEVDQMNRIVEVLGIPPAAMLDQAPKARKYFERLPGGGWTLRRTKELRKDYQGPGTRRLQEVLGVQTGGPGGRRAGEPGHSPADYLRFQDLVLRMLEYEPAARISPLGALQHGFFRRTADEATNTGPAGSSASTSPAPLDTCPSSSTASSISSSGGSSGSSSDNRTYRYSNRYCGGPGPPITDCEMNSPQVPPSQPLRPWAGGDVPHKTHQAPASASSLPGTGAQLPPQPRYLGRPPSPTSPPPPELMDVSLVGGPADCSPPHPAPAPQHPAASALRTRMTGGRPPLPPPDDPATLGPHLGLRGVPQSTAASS
Experimental: as §1

[15] = target: T15, c-Src (Homo sapiens, UniProt P12931); assay: cSrc inhibition and kinase selectivity profile assay; format: biochemical
T15 construct: purchased Reaction Biology Corporation (assay service)
T15 sequence (P12931 whole entry): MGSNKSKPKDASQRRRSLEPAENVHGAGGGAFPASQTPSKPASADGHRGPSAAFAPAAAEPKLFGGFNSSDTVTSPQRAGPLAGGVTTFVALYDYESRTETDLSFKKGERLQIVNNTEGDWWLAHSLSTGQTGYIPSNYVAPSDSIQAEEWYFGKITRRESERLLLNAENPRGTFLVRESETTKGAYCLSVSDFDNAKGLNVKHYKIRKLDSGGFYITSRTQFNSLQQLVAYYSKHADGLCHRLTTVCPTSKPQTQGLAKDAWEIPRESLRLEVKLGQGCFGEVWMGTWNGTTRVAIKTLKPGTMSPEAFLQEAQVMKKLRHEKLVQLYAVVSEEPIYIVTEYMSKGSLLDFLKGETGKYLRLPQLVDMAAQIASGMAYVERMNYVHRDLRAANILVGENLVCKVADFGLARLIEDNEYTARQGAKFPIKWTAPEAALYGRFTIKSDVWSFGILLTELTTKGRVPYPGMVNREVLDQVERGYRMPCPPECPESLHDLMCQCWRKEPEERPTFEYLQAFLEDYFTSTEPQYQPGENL
Experimental: as §1

[16] = test system: mongrel rats, AIA model; assay: Adjuvant-induced arthritis in rats; format: in vivo
Experimental: Rat adjuvant-induced arthritis (AIA) model was performed at Pharmenterprises, Russia as described previously^3 and approved by Ethics Committee of Pharmenterprises. Male 10 week old mongrel rats were divided into eleven groups: negative control (#1), positive control (#2) and nine treatment groups (#3–11), ten […] in each group. Group #1 was left intact, while subplantar injection of 0.1 mL of Complete Freund’s adjuvant (CFA, Sigma) was made on day 0 at right paws of rats in groups […]. […] Disease progression was monitored by measuring volumes of the right (involved) and left (non-involved) paws on days 0, 14, 18, 21, 25, and 28.

[17] = 500 nM, relative to DMSO, read-out: Residual enzymatic activity
[18] = read-out: Residual enzymatic activity

T1 sequence (Q00535 whole entry): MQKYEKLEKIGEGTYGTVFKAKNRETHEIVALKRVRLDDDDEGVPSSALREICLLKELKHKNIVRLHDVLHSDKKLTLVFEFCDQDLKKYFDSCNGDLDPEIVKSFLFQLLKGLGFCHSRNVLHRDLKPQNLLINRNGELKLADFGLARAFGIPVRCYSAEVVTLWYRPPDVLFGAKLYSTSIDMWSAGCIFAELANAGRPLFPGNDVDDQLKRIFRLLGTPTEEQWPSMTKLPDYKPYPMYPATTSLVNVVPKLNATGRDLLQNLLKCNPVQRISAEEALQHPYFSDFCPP
T1 sequence (Q15078 whole entry partner): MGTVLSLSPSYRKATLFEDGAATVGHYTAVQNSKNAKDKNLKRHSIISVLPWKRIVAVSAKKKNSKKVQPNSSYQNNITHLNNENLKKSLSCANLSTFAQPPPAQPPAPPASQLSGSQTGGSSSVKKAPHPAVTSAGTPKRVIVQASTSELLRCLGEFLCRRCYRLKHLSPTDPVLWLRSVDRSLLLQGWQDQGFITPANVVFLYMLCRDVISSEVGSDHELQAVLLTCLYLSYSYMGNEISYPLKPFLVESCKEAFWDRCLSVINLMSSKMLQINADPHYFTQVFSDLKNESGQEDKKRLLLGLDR

COc1cc(Nc2ncnc(Nc3cc4c(cn3)NC(=O)C(C)(C)O4)n2)cc(OC)c1OC [MT-SYK-03]
remaining activity at 0.5 µM [1]: 101% | remaining activity at 0.5 µM [2]: 126% | Residual enzymatic activity [3]: 92.9% | remaining activity at 0.5 µM [4]: 63.4% | remaining activity at 0.5 µM [5]: 74.9% | remaining activity at 0.5 µM [6, 17]: 49.9% | IC50 ([6]; 10-dose mode, threefold serial dilution from 10 μM): 198 nM | remaining activity at 0.5 µM [7]: 92.1% | Residual enzymatic activity [8]: 54.2% | remaining activity at 0.5 µM [8, 18]: > 54% | remaining activity at 0.5 µM [9]: 94.4% | remaining activity at 0.5 µM [10]: 78.6% | Residual enzymatic activity [11]: 58.4% | remaining activity at 0.5 µM [11, 18]: > 54% | remaining activity at 0.5 µM [12]: 101% | remaining activity at 0.5 µM [13]: 100% | remaining activity at 0.5 µM [14]: 90.6% | IC50 [15]: 14.2 nM and 23 to 40 nM and 14 nM | remaining activity at 0.5 µM [15, 17]: 6.2% | Animal death ([16]; MT-SYK-03 52 mg/kg BID intragastric, 14 days): 0% | Animal death ([16]; MT-SYK-03 52 mg/kg BID intragastric, 18 days): 0% | Animal death ([16]; MT-SYK-03 52 mg/kg BID intragastric, 21 days): 0% | Animal death ([16]; MT-SYK-03 52 mg/kg BID intragastric, 25 days): 0% | Animal death ([16]; MT-SYK-03 52 mg/kg BID intragastric, 28 days): 0% | Animal death ([16]; MT-SYK-03 103 mg/kg BID intragastric, 14 days): 0% | Animal death ([16]; MT-SYK-03 103 mg/kg BID intragastric, 18 days): 0% | Animal death ([16]; MT-SYK-03 103 mg/kg BID intragastric, 21 days): 0% | Animal death ([16]; MT-SYK-03 103 mg/kg BID intragastric, 25 days): 0% | Animal death ([16]; MT-SYK-03 103 mg/kg BID intragastric, 28 days): 0% | Animal death ([16]; MT-SYK-03 207 mg/kg QD intragastric, 14 days): 0% | Animal death ([16]; MT-SYK-03 207 mg/kg QD intragastric, 18 days): 0% | Animal death ([16]; MT-SYK-03 207 mg/kg QD intragastric, 21 days): 0% | Animal death ([16]; MT-SYK-03 207 mg/kg QD intragastric, 25 days): 0% | Animal death ([16]; MT-SYK-03 207 mg/kg QD intragastric, 28 days): 0% | The increase in the volume of the paws relative to the initial level ([16]; non-involved paws, MT-SYK-03 52 mg/kg BID intragastric, 18 days): 22.55±2.93& % | The increase in the volume of the paws relative to the initial level ([16]; non-involved paws, MT-SYK-03 52 mg/kg BID intragastric, 21 days): 23.66±3.25& % | The increase in the volume of the paws relative to the initial level ([16]; non-involved paws, MT-SYK-03 52 mg/kg BID intragastric, 25 days): 24.39±2.8& % | The increase in the volume of the paws relative to the initial level ([16]; non-involved paws, MT-SYK-03 52 mg/kg BID intragastric, 28 days): 25.25±2.86& % | The increase in the volume of the paws relative to the initial level ([16]; non-involved paws, MT-SYK-03 103 mg/kg BID intragastric, 14 days): 11.22±1.26& % | The increase in the volume of the paws relative to the initial level ([16]; non-involved paws, MT-SYK-03 103 mg/kg BID intragastric, 18 days): 17.42±1.16& % | The increase in the volume of the paws relative to the initial level ([16]; non-involved paws, MT-SYK-03 103 mg/kg BID intragastric, 21 days): 20.38±2.11& % | The increase in the volume of the paws relative to the initial level ([16]; non-involved paws, MT-SYK-03 103 mg/kg BID intragastric, 25 days): 22.35±2.28& % | The increase in the volume of the paws relative to the initial level ([16]; non-involved paws, MT-SYK-03 103 mg/kg BID intragastric, 28 days): 21.41±2.05&# % | The increase in the volume of the paws relative to the initial level ([16]; non-involved paws, MT-SYK-03 207 mg/kg QD intragastric, 14 days): 14.3±1.82& % | The increase in the volume of the paws relative to the initial level ([16]; non-involved paws, MT-SYK-03 207 mg/kg QD intragastric, 18 days): 19.97±1.89& % | The increase in the volume of the paws relative to the initial level ([16]; non-involved paws, MT-SYK-03 207 mg/kg QD intragastric, 21 days): 21.15±1.89& % | The increase in the volume of the paws relative to the initial level ([16]; non-involved paws, MT-SYK-03 207 mg/kg QD intragastric, 25 days): 22.51±1.61& % | The increase in the volume of the paws relative to the initial level ([16]; non-involved paws, MT-SYK-03 207 mg/kg QD intragastric, 28 days): 21.94±1.37&# % | The increase in the volume of the paws relative to the initial level ([16]; po, 52 mg/kg, 336 h): 13.93±1.83& % | Rats died ([16]; rat AIA, MT-SYK-03): 0% | Volume of non-involved paws ([16]; rat AIA, MT-SYK-03 103 and 207 mg/kg, day 28): decreased the volume of non-involved paws | The increase in the volume of the paws relative to the initial level ([16]; treated paws, MT-SYK-03 52 mg/kg BID intragastric, 14 days): 77.6 ± 4.53 & % | The increase in the volume of the paws relative to the initial level ([16]; treated paws, MT-SYK-03 52 mg/kg BID intragastric, 18 days): 85.72 ± 3.7 & % | The increase in the volume of the paws relative to the initial level ([16]; treated paws, MT-SYK-03 52 mg/kg BID intragastric, 21 days): 88.24 ± 4.4 & % | The increase in the volume of the paws relative to the initial level ([16]; treated paws, MT-SYK-03 52 mg/kg BID intragastric, 25 days): 94.75 ± 7.18 & % | The increase in the volume of the paws relative to the initial level ([16]; treated paws, MT-SYK-03 52 mg/kg BID intragastric, 28 days): 93.88 ± 6.77 & % | The increase in the volume of the paws relative to the initial level ([16]; treated paws, MT-SYK-03 103 mg/kg BID intragastric, 14 days): 76.18 ± 7.73 & % | The increase in the volume of the paws relative to the initial level ([16]; treated paws, MT-SYK-03 103 mg/kg BID intragastric, 18 days): 85.98 ± 7.51 & % | The increase in the volume of the paws relative to the initial level ([16]; treated paws, MT-SYK-03 103 mg/kg BID intragastric, 21 days): 86.55 ± 8.13 & % | The increase in the volume of the paws relative to the initial level ([16]; treated paws, MT-SYK-03 103 mg/kg BID intragastric, 25 days): 86.47 ± 7.89 & % | The increase in the volume of the paws relative to the initial level ([16]; treated paws, MT-SYK-03 103 mg/kg BID intragastric, 28 days): 89.02 ± 7.37 & % | The increase in the volume of the paws relative to the initial level ([16]; treated paws, MT-SYK-03 207 mg/kg QD intragastric, 14 days): 81.54 ± 6.88 & % | The increase in the volume of the paws relative to the initial level ([16]; treated paws, MT-SYK-03 207 mg/kg QD intragastric, 18 days): 82.92 ± 6.64 & % | The increase in the volume of the paws relative to the initial level ([16]; treated paws, MT-SYK-03 207 mg/kg QD intragastric, 21 days): 83.22 ± 6.53 & % | The increase in the volume of the paws relative to the initial level ([16]; treated paws, MT-SYK-03 207 mg/kg QD intragastric, 25 days): 88.58 ± 7.8 & % | The increase in the volume of the paws relative to the initial level ([16]; treated paws, MT-SYK-03 207 mg/kg QD intragastric, 28 days): 93.67 ± 9.08 & %

Reference: PMC8632988, “Inhibition of SYK and cSrc kinases can protect bone and cartilage in preclinical models of osteoarthritis and rheumatoid arthritis” (Scientific Reports, 2021)
